Test results taken from ChEMBL document CHEMBL1156987, “Novel azalides derived from 16-membered macrolides. III. Azalides modified at the C-15 and 4'' positions: Improved antibacterial activities” (Bioorg Med Chem, 2010).
In brackets after ≈: the same amount, converted by molar mass.

Legend:
Haemophilus influenzae [1] = assay: Antibacterial activity against Haemophilus influenzae 1 after 20 hrs by agar dilution method; format: functional; conditions: Haemophilus influenzae, 1, 20 h
Streptococcus pneumoniae [2] = assay: Antibacterial activity against Streptococcus pneumoniae 9 expressing inducible ermB methylase after 20 hrs by agar dilution method; format: functional; conditions: Streptococcus pneumoniae, 9, 20 h
Streptococcus pneumoniae [3] = assay: Antibacterial activity against Streptococcus pneumoniae 7 expressing constitutive ermB methylase after 20 hrs by agar dilution method; format: functional; conditions: Streptococcus pneumoniae, 7, 20 h
Streptococcus pyogenes [4] = assay: Antibacterial activity against Streptococcus pyogenes 3 expressing mefA efflux pump after 20 hrs by agar dilution method; format: functional; conditions: Streptococcus pyogenes, 3, 20 h
Streptococcus pyogenes [5] = assay: Antibacterial activity against Streptococcus pyogenes 2 expressing constitutive ermB methylase after 20 hrs by agar dilution method; format: functional; conditions: Streptococcus pyogenes, 2, 20 h
Streptococcus pneumoniae [6] = assay: Antibacterial activity against Streptococcus pneumoniae DP1 type 1 after 20 hrs by agar dilution method; format: functional; conditions: DP1 type1, 20 h
Haemophilus influenzae [7] = assay: Antibacterial activity against Haemophilus influenzae 2 after 20 hrs by agar dilution method; format: functional; conditions: Haemophilus influenzae, 2, 20 h
Streptococcus pneumoniae [8] = assay: Antibacterial activity against Streptococcus pneumoniae 10 expressing mefA efflux pump after 20 hrs by agar dilution method; format: functional; conditions: Streptococcus pneumoniae, 10, 20 h
Streptococcus pneumoniae [9] = assay: Antibacterial activity against Streptococcus pneumoniae 8 expressing inducible ermB methylase after 20 hrs by agar dilution method; format: functional; conditions: Streptococcus pneumoniae, 8, 20 h
Streptococcus pyogenes [10] = assay: Antibacterial activity against Streptococcus pyogenes Cook after 20 hrs by agar dilution method; format: functional
[11] = Metabolic stability at human liver S9 fraction assessed as compound remaining after 1 hr; format: ADME, subcellular; conditions: read-out: Stability
Staphylococcus aureus = assay: Antibacterial activity against Staphylococcus aureus 209P JC1 after 20 hrs by agar dilution method; format: functional; conditions: 209P JC1, 20 h
Streptococcus pneumoniae [12] = assay: Antibacterial activity against Streptococcus pneumoniae 6 expressing constitutive ermB methylase and mefA after 20 hrs by agar dilution method; format: functional; conditions: Streptococcus pneumoniae, 6, 20 h
Haemophilus influenzae [13] = assay: Antibacterial activity against Haemophilus influenzae 3 after 20 hrs by agar dilution method; format: functional; conditions: Haemophilus influenzae, 3, 20 h
Streptococcus pneumoniae [14] = assay: Antibacterial activity against Streptococcus pneumoniae 5 expressing constitutive ermB methylase after 20 hrs by agar dilution method; format: functional; conditions: Streptococcus pneumoniae, 5, 20 h
Streptococcus pneumoniae [15] = assay: Antibacterial activity against Streptococcus pneumoniae 11 expressing mefA efflux pump after 20 hrs by agar dilution method; format: functional; conditions: Streptococcus pneumoniae, 11, 20 h

| MIC (Haemophilus influenzae [1]) | MIC (Streptococcus pneumoniae [2]) | MIC (Streptococcus pneumoniae [3]) | MIC (Streptococcus pyogenes [4]) | MIC (Streptococcus pyogenes [5]) | MIC (Streptococcus pneumoniae [6]) | MIC (Haemophilus influenzae [7]) | MIC (Streptococcus pneumoniae [8]) | MIC (Streptococcus pneumoniae [9]) | MIC (Streptococcus pyogenes [10]) | remaining at 1 h [11] | MIC (Staphylococcus aureus) | MIC (Streptococcus pneumoniae [12]) | MIC (Haemophilus influenzae [13]) | MIC (Streptococcus pneumoniae [14]) | MIC (Streptococcus pneumoniae [15]) | Compound |
| --- | --- | --- | --- | --- | --- | --- | --- | --- | --- | --- | --- | --- | --- | --- | --- | --- |
| 8 µg/mL (≈ 7.57 µM) | 0.25 µg/mL (≈ 0.236 µM) | 16 µg/mL (≈ 15.1 µM) | 0.13 µg/mL (≈ 0.123 µM) | 32 µg/mL (≈ 30.3 µM) | 0.015 µg/mL (≈ 0.0142 µM) | 16 µg/mL (≈ 15.1 µM) | 0.015 µg/mL (≈ 0.0142 µM) | 0.13 µg/mL (≈ 0.123 µM) | 0.06 µg/mL (≈ 0.0567 µM) | 79% | 0.25 µg/mL (≈ 0.236 µM) | 16 µg/mL (≈ 15.1 µM) | 16 µg/mL (≈ 15.1 µM) | 16 µg/mL (≈ 15.1 µM) | 0.015 µg/mL (≈ 0.0142 µM) | CCNC(=O)O[C@H]1[C@H](C)O[C@@H](O[C@H]2[C@H](N(C)C)[C@@H](O)[C@H](O[C@H]3[C@@H](CC=O)C[C@@H](C)[C@@H](O)CN(C)CCC[C@H](C/C=C/c4cnc5ccccc5c4)OC(=O)C[C@@H](OC(=O)CC)[C@@H]3OC)O[C@@H]2C)C[C@@]1(C)OC(=O)CC |
| 4 µg/mL (≈ 3.83 µM) | 0.5 µg/mL (≈ 0.479 µM) | 32 µg/mL (≈ 30.7 µM) | 0.06 µg/mL (≈ 0.0575 µM) | > 32 µg/mL | < 0.008 µg/mL | 8 µg/mL (≈ 7.67 µM) | 0.015 µg/mL (≈ 0.0144 µM) | 0.25 µg/mL (≈ 0.24 µM) | 0.06 µg/mL (≈ 0.0575 µM) | 78% | 0.25 µg/mL (≈ 0.24 µM) | 32 µg/mL (≈ 30.7 µM) | 8 µg/mL (≈ 7.67 µM) | 32 µg/mL (≈ 30.7 µM) | 0.03 µg/mL (≈ 0.0288 µM) | CCC(=O)O[C@@H]1CC(=O)O[C@@H](C/C=C/c2cnc3ccccc3c2)CCCN(C)C[C@H](O)[C@H](C)C[C@H](CC=O)[C@H](O[C@@H]2O[C@H](C)[C@@H](O[C@H]3C[C@@](C)(OC(=O)CC)[C@@H](OC(=O)NC)[C@H](C)O3)[C@H](N(C)C)[C@H]2O)[C@H]1OC |
| 2 µg/mL (≈ 2.03 µM) | 8 µg/mL (≈ 8.11 µM) | 128 µg/mL (≈ 130 µM) | 0.5 µg/mL (≈ 0.507 µM) | > 128 µg/mL | 0.015 µg/mL (≈ 0.0152 µM) | 8 µg/mL (≈ 8.11 µM) | 0.06 µg/mL (≈ 0.0608 µM) | 8 µg/mL (≈ 8.11 µM) | 0.06 µg/mL (≈ 0.0608 µM) | 28% | 0.5 µg/mL (≈ 0.507 µM) | 128 µg/mL (≈ 130 µM) | 8 µg/mL (≈ 8.11 µM) | 128 µg/mL (≈ 130 µM) | 0.03 µg/mL (≈ 0.0304 µM) | CCC(=O)O[C@@H]1CC(=O)O[C@@H](C/C=C/c2cnc3ccccc3c2)CCCN(C)C[C@H](O)[C@H](C)C[C@H](CC=O)[C@H](O[C@@H]2O[C@H](C)[C@@H](O[C@H]3C[C@@](C)(O)[C@@H](OC(=O)CC)[C@H](C)O3)[C@H](N(C)C)[C@H]2O)[C@H]1OC |
| 16 µg/mL (≈ 15.1 µM) | 0.5 µg/mL (≈ 0.473 µM) | 32 µg/mL (≈ 30.3 µM) | 0.5 µg/mL (≈ 0.473 µM) | 16 µg/mL (≈ 15.1 µM) | 0.06 µg/mL (≈ 0.0568 µM) | 16 µg/mL (≈ 15.1 µM) | 0.13 µg/mL (≈ 0.123 µM) | 0.5 µg/mL (≈ 0.473 µM) | 0.25 µg/mL (≈ 0.237 µM) | 82% | 2 µg/mL (≈ 1.89 µM) | 32 µg/mL (≈ 30.3 µM) | 32 µg/mL (≈ 30.3 µM) | 16 µg/mL (≈ 15.1 µM) | 0.13 µg/mL (≈ 0.123 µM) | CCNC(=O)O[C@H]1[C@H](C)O[C@@H](O[C@H]2[C@H](N(C)C)[C@@H](O)[C@H](O[C@H]3[C@@H](CC=O)C[C@@H](C)[C@@H](O)CN(C)CCC[C@H](C/C=C/c4ccc5ccccc5c4)OC(=O)C[C@@H](OC(=O)CC)[C@@H]3OC)O[C@@H]2C)C[C@@]1(C)OC(=O)CC |
| 2 µg/mL (≈ 2 µM) | 0.06 µg/mL (≈ 0.0599 µM) | 4 µg/mL (≈ 4 µM) | 0.13 µg/mL (≈ 0.13 µM) | 32 µg/mL (≈ 32 µM) | < 0.008 µg/mL | 4 µg/mL (≈ 4 µM) | 0.015 µg/mL (≈ 0.015 µM) | 0.06 µg/mL (≈ 0.0599 µM) | 0.03 µg/mL (≈ 0.03 µM) | – | 0.25 µg/mL (≈ 0.25 µM) | 4 µg/mL (≈ 4 µM) | 4 µg/mL (≈ 4 µM) | 2 µg/mL (≈ 2 µM) | 0.015 µg/mL (≈ 0.015 µM) | CCNC(=O)O[C@H]1[C@H](C)O[C@@H](O[C@H]2[C@H](N(C)C)[C@@H](O)[C@H](O[C@H]3[C@@H](CC=O)C[C@@H](C)[C@@H](O)CN(C)CCC[C@H](C/C=C/c4cncc5ccccc45)OC(=O)C[C@@H](O)[C@@H]3OC)O[C@@H]2C)C[C@@]1(C)OC(=O)CC |
